Experimental data: ChEMBL document CHEMBL4184259, “Design, synthesis and evaluation of 4'-OH-flurbiprofen-chalcone hybrids as potential multifunctional agents for Alzheimer's disease treatment” (Bioorg Med Chem, 2018)
Calls of active or inactive are those of the source. The rule behind the calls is not given here.

How the values were obtained:
[1] = molecular target: Amyloid-beta precursor protein (Homo sapiens) (UniProt P05067); assay: Inhibition of self-induced aggregation of amyloid beta (1 to 42) (unknown origin) at 25 uM after 24 hrs by thioflavin T fluorescence method relative to control
[2] = Inhibition of cupric ion-mediated amyloid beta (1 to 42) aggregation at 25 uM after 24 hrs by thioflavin T fluorescence assay relative to control
[3] = Antioxidant activity assessed as trolox equivalent of […]-induced radical scavenging activity at 1 to 10 uM pretreated for 15 mins followed by […] addition measured at 1 min interval for 90 mins by ORAC-FL assay; format: functional
[4] = Metal chelating activity assessed as Cu2+-compound complex formation by measuring shift in maximum absorption wavelength at 37.5 uM after 30 mins by UV-Vis spectral analysis
BV-2 [5] = assay: Antiinflammatory activity in mouse BV2 cells assessed as inhibition of LPS-induced TNFalpha production at 10 uM pretreated for 30 mins followed by LPS-stimulation measured after 24 hrs by ELISA relative to control; format: functional
[6] = Metal chelating activity assessed as Al3+-compound complex formation by measuring shift in maximum absorption wavelength at 37.5 uM after 30 mins by UV-Vis spectral analysis
BV-2 [7] = assay: Antiinflammatory activity in mouse BV2 cells assessed as inhibition of LPS-induced TNFalpha production at 2.5 uM pretreated for 30 mins followed by LPS-stimulation measured after 24 hrs by ELISA relative to control; format: functional
BV-2 [8] = assay: Antiinflammatory activity in mouse BV2 cells assessed as inhibition of LPS-induced nitric oxide production at 0.5 uM pretreated for 30 mins followed by LPS-stimulation measured after 24 hrs by Griess assay relative to control; format: functional
BV-2 [9] = assay: Antiinflammatory activity in mouse BV2 cells assessed as inhibition of LPS-induced nitric oxide production at 2.5 uM pretreated for 30 mins followed by LPS-stimulation measured after 24 hrs by Griess assay relative to control; format: functional
[10] = Metal chelating activity assessed as Zn2+-compound complex formation by measuring shift in maximum absorption wavelength at 37.5 uM after 30 mins by UV-Vis spectral analysis
BV-2 [11] = assay: Cytotoxicity against LPS-induced mouse BV2 cells assessed as effect on cell viability at 0.5 to 10 uM pretreated for 30 mins followed by LPS-stimulation after 24 hrs by MTT assay; format: cell-based; conditions: bv-2, 24 h
[12] = Metal chelating activity assessed as mole fraction of compound required to show 1:1 stoichiometry for Cu2+-compound complex by UV-vis spectral analysis
[13] = Effective permeability of the compound in PBS/EtOH at 100 ug/ml after 18 hrs by PAMPA-BBB assay
BV-2 [14] = assay: Cytotoxicity against mouse BV2 cells assessed as effect on cell viability up to 10 uM after 30 mins by MTT assay; format: cell-based; conditions: bv-2, 0.5 h
BV-2 [15] = assay: Antiinflammatory activity in mouse BV2 cells assessed as inhibition of LPS-induced TNFalpha production at 0.5 uM pretreated for 30 mins followed by LPS-stimulation measured after 24 hrs by ELISA relative to control; format: functional
BV-2 [16] = assay: Cytotoxicity against mouse BV2 cells assessed as reduction in cell viability at 40 uM after 30 mins by MTT assay relative to control; format: cell-based; conditions: bv-2, 0.5 h
[17] = Metal chelating activity assessed as Fe2+-compound complex formation by measuring shift in maximum absorption wavelength at 37.5 uM after 30 mins by UV-Vis spectral analysis
BV-2 [18] = assay: Antiinflammatory activity in mouse BV2 cells assessed as inhibition of LPS-induced nitric oxide production at 10 uM pretreated for 30 mins followed by LPS-stimulation measured after 24 hrs by Griess assay relative to control; format: functional
BV-2 [19] = assay: Cytotoxicity against LPS-induced mouse BV2 cells assessed as effect on cell viability at 2.5 to 10 uM pretreated for 30 mins followed by LPS-stimulation after 24 hrs by MTT assay; format: cell-based; conditions: bv-2, 24 h

Chain of Amyloid-beta precursor protein (Homo sapiens) (P05067 whole entry): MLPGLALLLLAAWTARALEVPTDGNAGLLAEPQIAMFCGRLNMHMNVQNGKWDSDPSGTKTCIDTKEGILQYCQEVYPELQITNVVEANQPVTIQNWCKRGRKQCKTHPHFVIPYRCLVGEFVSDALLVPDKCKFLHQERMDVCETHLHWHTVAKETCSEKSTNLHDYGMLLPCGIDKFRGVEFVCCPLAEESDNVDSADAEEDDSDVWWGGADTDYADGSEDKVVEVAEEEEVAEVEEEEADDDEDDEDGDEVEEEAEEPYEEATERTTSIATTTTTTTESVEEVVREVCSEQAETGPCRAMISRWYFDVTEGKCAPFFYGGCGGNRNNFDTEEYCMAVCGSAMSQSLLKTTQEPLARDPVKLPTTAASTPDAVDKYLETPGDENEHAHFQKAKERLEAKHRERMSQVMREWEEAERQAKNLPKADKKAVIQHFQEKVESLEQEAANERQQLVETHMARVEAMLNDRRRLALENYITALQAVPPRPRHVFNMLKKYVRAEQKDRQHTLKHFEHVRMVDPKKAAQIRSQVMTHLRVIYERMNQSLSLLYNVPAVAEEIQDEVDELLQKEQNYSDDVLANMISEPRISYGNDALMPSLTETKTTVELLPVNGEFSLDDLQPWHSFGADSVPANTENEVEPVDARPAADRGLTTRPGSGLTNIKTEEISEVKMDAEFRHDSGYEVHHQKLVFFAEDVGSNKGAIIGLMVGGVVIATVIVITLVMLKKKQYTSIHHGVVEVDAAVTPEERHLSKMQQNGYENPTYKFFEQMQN

Structure (SMILES) | inhibition [1] | inhibition [2] | Activity [3] | other results
COc1ccccc1/C=C/C(=O)c1cc(-c2ccc(C(C)C(=O)O)cc2F)ccc1O (centres undefined) | 25.1% | 18.9% | 1.06 equiv | 
COc1ccc(/C=C/C(=O)c2cc(-c3ccc(C(C)C(=O)O)cc3F)ccc2O)c(OC)c1 (centres undefined) | 18.8% | 45.3% | 1.05 equiv | 
CC(C(=O)O)c1ccc(-c2ccc(O)c(C(=O)/C=C/c3ccc(N4CCOCC4)cc3)c2)c(F)c1 (centres undefined) | 51.3% | 47.2% | 2.23 equiv | 
CC(C(=O)O)c1ccc(-c2ccc(O)c(C(=O)/C=C/c3cccs3)c2)c(F)c1 (centres undefined) | 16.6% | 12.1% | 1.2 equiv | 
COc1cc2c(cc1OC)C(=O)C(CC1CCN(Cc3ccccc3)CC1)C2 (centres undefined) |  | < 5% |  | 
CC(C(=O)O)c1ccc(-c2ccc(O)c(C(=O)/C=C/c3cccnc3)c2)c(F)c1 (centres undefined) | 8.3% | 47% | 1.1 equiv | 
COc1cccc(/C=C/C(=O)c2cc(-c3ccc(C(C)C(=O)O)cc3F)ccc2O)c1O (centres undefined) | 29% | 13.4% | 1.6 equiv | 
CC(C(=O)O)c1ccc(-c2ccc(O)c(C(=O)/C=C/c3ccccc3O)c2)c(F)c1 (centres undefined) | 23.1% | 16.3% | 3.4 equiv | 
CC(C(=O)O)c1ccc(-c2ccc(O)c(C(=O)/C=C/c3ccc(O)cc3)c2)c(F)c1 (centres undefined) | 18.7% | 26.1% | 3.5 equiv | 
CC(C(=O)O)c1ccc(-c2ccc(O)c(C(=O)/C=C/c3ccncc3)c2)c(F)c1 (centres undefined) | 18.2% | 52.8% | 0.9 equiv | 
CC(C(=O)O)c1ccc(-c2ccc(O)c(C(=O)/C=C/c3ccc(N4CCCCC4)cc3)c2)c(F)c1 (centres undefined) | 31.5% | 53.8% | 1.1 equiv | 
COc1ccc(O)c(/C=C/C(=O)c2cc(-c3ccc(C(C)C(=O)O)cc3F)ccc2O)c1 (centres undefined) | 38.1% | 22.2% | 2.5 equiv | 
COc1ccc(/C=C/C(=O)c2cc(-c3ccc(C(C)C(=O)O)cc3F)ccc2O)cc1 (centres undefined) | 32.9% | 29.1% | 0.61 equiv | 
CC(C(=O)O)c1ccc(-c2ccc(O)c(C(=O)/C=C/c3ccccc3N(C)C)c2)c(F)c1 (centres undefined) | 36.8% | 20.1% | 0.77 equiv | 
COc1ccc(/C=C/C(=O)c2cc(-c3ccc(C(C)C(=O)O)cc3F)ccc2O)cc1OC (centres undefined) | 14.2% | 24.5% | 1.56 equiv | 
COc1ccc(/C=C/C(=O)c2cc(-c3ccc(C(C)C(=O)O)cc3F)ccc2O)cc1O (centres undefined) | 31% | 14.6% | 2 equiv | 
COc1cc(/C=C/C(=O)CC(=O)/C=C/c2ccc(O)c(OC)c2)ccc1O |  | 69.5% |  | 
CC(C(=O)O)c1ccc(-c2ccc(O)c(C(=O)/C=C/c3ccc(N(C)C)cc3)c2)c(F)c1 (centres undefined) | 60% | 52.4% | 3.1 equiv | Activity [4]: 492 nm; inhibition at 10 µM (BV-2 [5]): 61.5%; Activity [6]: 500 nm; inhibition at 2.5 µM (BV-2 [7]): 39.6%; inhibition at 0.5 µM (BV-2 [8]): 25.7%; inhibition at 2.5 µM (BV-2 [9]): 36%; Activity [10]: inactive; Activity (BV-2 [11]): Non-Toxic; Activity [12]: 0.99 molar ratio; Papp at 18 h, 100 ug/ml [13]: 2.25 ×10⁻⁶ cm/s; Activity (BV-2 [14]): Non-Toxic; inhibition at 0.5 µM (BV-2 [15]): 12.1%; Activity (BV-2 [16]): 69.1%; Activity [17]: inactive; inhibition at 10 µM (BV-2 [18]): 64.7%
Cc1ccc(/C=C/C(=O)c2cc(-c3ccc(C(C)C(=O)O)cc3F)ccc2O)cc1 (centres undefined) | 23.6% | 18.7% | 0.42 equiv | 
CCN(CC)c1ccc(/C=C/C(=O)c2cc(-c3ccc(C(C)C(=O)O)cc3F)ccc2O)cc1 (centres undefined) | 78.2% | 95% | 3.3 equiv | Activity [4]: 500 nm; inhibition at 10 µM (BV-2 [5]): 65.4%; Activity [6]: 516 nm; inhibition at 2.5 µM (BV-2 [7]): 46.2%; inhibition at 0.5 µM (BV-2 [8]): 30.1%; inhibition at 2.5 µM (BV-2 [9]): 46.3%; Activity (BV-2 [11]): Non-Toxic; Activity [12]: 1.04 molar ratio; Papp at 18 h, 100 ug/ml [13]: 6.66 ×10⁻⁶ cm/s; Activity (BV-2 [14]): Non-Toxic; inhibition at 0.5 µM (BV-2 [15]): 14.3%; Activity (BV-2 [16]): 64.9%; inhibition at 10 µM (BV-2 [18]): 68.4%
CC(C(=O)O)c1ccc(-c2ccccc2)c(F)c1 (centres undefined) [FLURBIPROFEN] | 12.3% | 6.2% | 0.14 equiv | inhibition at 10 µM (BV-2 [5]): 30.3%; inhibition at 2.5 µM (BV-2 [7]): 9.6%; inhibition at 2.5 µM (BV-2 [9]): 11.8%; Activity (BV-2 [14]): Non-Toxic; Activity (BV-2 [16]): Non-Toxic; Activity (BV-2 [19]): Non-Toxic; inhibition at 10 µM (BV-2 [18]): 23%
